Laboratory results reported in PubChem BioAssay (NCI).
Several values for one entry are separate records, joined by “and”; a condition that tells them apart may be missing. Equal entries are not always repeated.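 Test compounds were applied to cells in 96-well plates for 48 hours at 5 doses. GI50 = concentration required for 50% inhibition of growth. Definition used: TGI = concentration required for complete inhibition of growth.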

Tests used:
Test in all cases: inhibition of tumour cell growth, NCI panel, 48 h
786-0 renal = system: 786-0 renal
A498 renal = system: A498 renal
A549 NSCLC = system: A549 NSCLC
ACHN renal = system: ACHN renal
BT-549 breast = system: BT-549 breast
CAKI-1 renal = system: CAKI-1 renal
COLO 205 colon = system: COLO 205 colon
DU-145 prostate = system: DU-145 prostate
EKVX NSCLC = system: EKVX NSCLC
HCC-2998 colon = system: HCC-2998 colon
HCT-116 colon = system: HCT-116 colon
HCT-15 colon = system: HCT-15 colon
HOP-62 NSCLC = system: HOP-62 NSCLC
HOP-92 NSCLC = system: HOP-92 NSCLC
HS 578T breast = system: HS 578T breast
HT29 colon = system: HT29 colon
IGROV1 ovarian = system: IGROV1 ovarian
KM12 colon = system: KM12 colon
LOX IMVI melanoma = system: LOX IMVI melanoma
M14 melanoma = system: M14 melanoma
MALME-3M melanoma = system: MALME-3M melanoma
MCF7 breast = system: MCF7 breast
MDA-MB-231 breast = system: MDA-MB-231 breast
MDA-MB-435 = system: MDA-MB-435
MOLT-4 leukemia = system: MOLT-4 leukemia
NCI-H226 lung = system: NCI-H226 lung
NCI-H23 lung = system: NCI-H23 lung

COCCNCCc1cccc(Nc2ncc3c(n2)-c2ccccc2C(c2ccccc2F)C3)c1 (centres undefined)
GI50 (786-0 renal): 1430 nM and 1760 nM
TGI (786-0 renal): 2910 nM and 3300 nM
GI50 (A498 renal): 345 nM and 1610 nM
TGI (A498 renal): 1750 nM and 3140 nM
GI50 (A549 NSCLC): 1780 nM and 1880 nM
TGI (A549 NSCLC): 3330 nM and 3510 nM
GI50 (ACHN renal): 1030 nM and 1050 nM
TGI (ACHN renal): 2200 nM and 2230 nM
GI50 (BT-549 breast): 1550 nM and 7790 nM
TGI (BT-549 breast): 2950 nM and 25600 nM
GI50 (CAKI-1 renal): 1270 nM and 1260 nM
TGI (CAKI-1 renal): 2540 nM
GI50 (COLO 205 colon): 1880 nM and 1920 nM
TGI (COLO 205 colon): 3670 nM and 3630 nM
GI50 (DU-145 prostate): 1530 nM and 1620 nM
TGI (DU-145 prostate): 2980 nM and 3040 nM
GI50 (EKVX NSCLC): 1630 nM and 1920 nM
TGI (EKVX NSCLC): 3130 nM and 3510 nM
GI50 (HCC-2998 colon): 1770 nM and 2080 nM
TGI (HCC-2998 colon): 3280 nM and 3650 nM
GI50 (HCT-116 colon): 1210 nM and 1660 nM
TGI (HCT-116 colon): 2600 nM and 3120 nM
GI50 (HCT-15 colon): 1190 nM and 1260 nM
TGI (HCT-15 colon): 2560 nM and 2600 nM
GI50 (HOP-62 NSCLC): 1600 nM and 1710 nM
TGI (HOP-62 NSCLC): 3110 nM and 3300 nM
GI50 (HOP-92 NSCLC): 1020 nM and 1240 nM
TGI (HOP-92 NSCLC): 2270 nM and 2650 nM
GI50 (HS 578T breast): 1150 nM and 1270 nM
TGI (HS 578T breast): 3460 nM and 3790 nM
GI50 (HT29 colon): 1120 nM and 1310 nM
TGI (HT29 colon): 2360 nM and 2680 nM
GI50 (IGROV1 ovarian): 1000 nM and 1210 nM
TGI (IGROV1 ovarian): 2380 nM and 2750 nM
GI50 (KM12 colon): 1770 nM and 1790 nM
TGI (KM12 colon): 3430 nM and 3370 nM
GI50 (LOX IMVI melanoma): 1250 nM and 1230 nM
TGI (LOX IMVI melanoma): 2560 nM and 2500 nM
GI50 (M14 melanoma): 1560 nM and 1940 nM
TGI (M14 melanoma): 3060 nM and 3780 nM
GI50 (MALME-3M melanoma): 1770 nM and 1870 nM
TGI (MALME-3M melanoma): 3410 nM and 3540 nM
GI50 (MCF7 breast): 1580 nM and 1780 nM
TGI (MCF7 breast): 3400 nM and 3690 nM
GI50 (MDA-MB-231 breast): 1670 nM and 1450 nM
TGI (MDA-MB-231 breast): 3110 nM and 2840 nM
GI50 (MDA-MB-435): 1750 nM and 1820 nM
TGI (MDA-MB-435): 3250 nM and 3320 nM
GI50 (MOLT-4 leukemia): 1180 nM
TGI (MOLT-4 leukemia): 4150 nM
GI50 (NCI-H226 lung): 1310 nM and 1800 nM
TGI (NCI-H226 lung): 2940 nM and 3670 nM
GI50 (NCI-H23 lung): 1650 nM and 1750 nM
TGI (NCI-H23 lung): 3100 nM and 3320 nM
